Data on 17 compounds can be found in PMC7537881, “Biochemical screening for SARS-CoV-2 main protease inhibitors” (PLoS ONE, 2020).

Structures are written as SMILES. “Also recorded” adds a separate entry of the source. Where two headings read alike, the source gives them in different places. Some results are limits rather than exact numbers.

In series [1] the target is T1, SARS-CoV-2 M^pro (Severe acute respiratory syndrome coronavirus 2, UniProt P0DTD1). The series is described as follows: biochemical. Particulars: 10 μM substrate, 0.5 μM enzyme, triplicate; error = SEM.
The next series concerns mouse. Particulars: ref www.pubchem.gov, cited from earlier work.
Series [2] concerns the target T1, SARS-CoV-2 M^pro. The series is described as follows: biochemical. Particulars: for Km: read-out: Km (Michaelis Menten constant). In kind it is biochemical.
The next series has as its system rat. The note with it: cited from earlier work.
Series [3] deals with T1, SARS-CoV-2 M^pro. In kind it is biochemical. Particulars: 1 μM Mpro, 10 μM substrate, 40 μM compound.
Series [4] deals with human immunodeficiency virus (HIV). Details: method as in PMID 1517963. The note with it: cited from earlier work.
The test system of series [5] is HIV's reverse transcriptase. The arrangement: method as in PMID 1517963. The note with it: biochemical assays; cited from earlier work.
In another series the test system is SARS-CoV-2. The note with it: cited from earlier work.
The conditions of series [6]: route and species not given; ref www.pubchem.gov; cited from earlier work.
In another series the test system is hepatitis B virus (HBV). The arrangement: method as in PMID 31798562. The note with it: cited from earlier work.
The subject of the next series is SARS-CoV M^pro. The note with it: cited from earlier work.
A further series concerns SARS-CoV. The note with it: cited from earlier work.
In a further series the test system is Vero-cell. The note with it: cited from earlier work.
The mark [7] stands for this setting: 0.5 μM Mpro, substrate 1.25-80 μM, two inhibitor concentrations, error = SEM.
Where [8] appears, read: fitted in the kinetics experiment with this inhibitor, error = SEM.
Where [9] appears, read: most probable model by SSQ, ΔAIC, ΔBIC (Dynafit).

Broadly, the IC50 is the concentration that gives 50% inhibition. As a reminder, the LD50 is the dose expected to kill half of the subjects tested. By Ki is commonly meant a dissociation constant, usually derived from enzyme kinetics or from competition with a known ligand. A higher Ki goes with lower affinity. One may read the Km as the concentration of substrate that gives half-maximal velocity. A word on the EC50: it is the midpoint of the concentration-response curve.

On SARS-CoV-2 M^pro [1], `CC1=CC(=O)c2c(O)cccc2C1=O` [Plumbagin (9), Plumbagin] showed an IC50 of 17.1 ± 9 µM. Also, the LD50 in the series on mouse (oral) was 16 mg/kg.

At SARS-CoV-2 M^pro [1], `CC1=C(CCC(=O)O)c2cc3[nH]c(cc4nc(cc5[nH]c(cc1n2)c(C)c5C(C)O)C(C)=C4C(C)O)c(C)c3CCC(=O)O` (stereo not drawn) [Hematoporphyrin (5), Hematoporphyrin] registered an IC50 of 3.9 ± 0.6 µM. This compound also yielded a Ki at SARS-CoV-2 M^pro [2] (setting [7]) of 5.9 ± 0.5 µM. Further, the “kcat (turnover number)” value at SARS-CoV-2 M^pro [2] (setting [8]) was determined as 0.011 s⁻¹. The Inhibition mechanism result was “non-competitive” at SARS-CoV-2 M^pro [2] (setting [9]) and “mixed or non-competitive inhibition” on SARS-CoV-2 M^pro [2] (most probable model by SSQ, ΔAIC, ΔBIC (Dynafit), listed as hematoporphyrin (5)). Also, the median lethal dose (LD50) in the series on mouse (IV) was 307 mg/kg.

Take `CC(=O)[O][Hg][c]1ccccc1` [Phenylmercuric acetate (2), Phenylmercuric acetate]: on SARS-CoV-2 M^pro [1], half-maximal inhibition (IC50) required 0.4 ± 0.06 µM. Further, at SARS-CoV-2 M^pro [2], the Inhibition mechanism result is given as “competitive inhibition”, the affinity corresponds to a Ki of 0.11 ± 0.03 µM, the “kcat (turnover number)” value amounted to 0.013 s⁻¹ and the Km is 52 µM. Also, the LD50 in the series on rat (oral, rat, ref www.pubchem.gov) is on record as 41 mg/kg.

Take `COc1ccc(C(=O)c2ccc(O)cc2)c(O)c1O` [2,3,4'-trihydroxy-4-methoxybenzophenone]: the “Inhibitory activity in the screen” value at SARS-CoV-2 M^pro [3] was “no significant inhibitory activity”.

Regarding `O=C1C(Cl)=C(Cl)C(=O)C(Cl)=C1Cl` [Chloranil (8), Chloranil], on SARS-CoV-2 M^pro [1], the IC50 was determined as 4.1 ± 0.8 µM. Moreover, the LD50 in the series with rat (oral, rat, ref www.pubchem.gov) is 4000 mg/kg.

As for `COc1cc(-c2ccc(/N=N/c3ccc4c(S(=O)(=O)O)cc(S(=O)(=O)O)c(N)c4c3O)c(OC)c2)ccc1/N=N/c1ccc2c(S(=O)(=O)O)cc(S(=O)(=O)O)c(N)c2c1O` [Chicago Sky Blue (12), Chicago Sky Blue], the IC50 against SARS-CoV-2 M^pro [1] was 7.7 ± 1.6 µM. The same compound yielded a Ki on SARS-CoV-2 M^pro [2] (setting [7]) of 1.3 ± 0.2 µM. Further, the “kcat (turnover number)” value at SARS-CoV-2 M^pro [2] (setting [8]) was determined as 0.013 s⁻¹. Besides, the Inhibition mechanism entry at SARS-CoV-2 M^pro [2] (setting [9]) is “competitive inhibition”. Also, the “Inhibition of HIV in cellular assays” value in series [4] is “inhibit”. The “Inhibition of HIV reverse transcriptase” value in series [5] is recorded as “inhibit”. Also, the LD50 in the series on mouse (IV) is 2260 mg/kg.

Compound `C[CH2][Hg][S]c1ccccc1C(=O)[O-].[Na+]` [Thimerosal (1), Thimerosal] displayed an IC50 against SARS-CoV-2 M^pro [1] of 0.6 ± 0.1 µM. In addition, at SARS-CoV-2 M^pro [2], the Inhibition mechanism result is recorded as “mixed or non-competitive inhibition; also recorded: Mixed”, the Ki was 0.6 ± 0.2 µM, the “kcat (turnover number)” value turned out to be 0.010 s⁻¹ and the Km stood at 47 ± 8 µM. The LD50 with rat (oral, rat, ref www.pubchem.gov) is 75 mg/kg.

As for `O=c1c2ccccc2[se]n1-c1ccccc1` [ebselen], the LD50 in the series on rat (in rats) was > 4,600 mg/kg.

As for `COC(=O)N[C@H](C(=O)N[C@@H](Cc1ccccc1)[C@@H](O)CN(Cc1ccc(-c2ccccn2)cc1)NC(=O)[C@@H](NC(=O)OC)C(C)(C)C)C(C)(C)C` [atazanavir], in the series with SARS-CoV-2, the EC50 was 2 µM.

Consider `O=[N+]([O-])C(Br)(CO)CO` [Bronopol (3), 2-bromo-2-nitropropane-1,3-diol], for which the IC50 against SARS-CoV-2 M^pro [1] is 4.4 ± 0.6 µM. At SARS-CoV-2 M^pro [2] (setting [7]), this compound returned a Ki of 2.5 ± 0.3 µM. For the same compound, at SARS-CoV-2 M^pro [2] (setting [8]), the “kcat (turnover number)” value is 0.010 s⁻¹. Also, the Inhibition mechanism result at SARS-CoV-2 M^pro [2] (setting [9]) is recorded as “non-competitive”; at SARS-CoV-2 M^pro [2] (most probable model by SSQ, ΔAIC, ΔBIC (Dynafit), listed as bronopol (3)), “mixed or non-competitive inhibition”. The LD50 in series [6] is 180 mg/kg.

For the compound `CCOc1ccc(C(=O)c2ccc(O)c(O)c2O)cc1` [(4-ethoxyphenyl)-(2,3,4-trihydroxyphenyl)methanone], it took 9 ± 1.5 µM to reach half-maximal inhibition against SARS-CoV-2 M^pro [1] (IC50).

Turning to `Cc1cc(-c2ccc(/N=N/c3ccc4c(S(=O)(=O)O)cc(S(=O)(=O)O)c(N)c4c3O)c(C)c2)ccc1/N=N/c1ccc2c(S(=O)(=O)O)cc(S(=O)(=O)O)c(N)c2c1O` [Evans blue (11), Evans blue], 0.2 ± 0.06 µM corresponded to half-maximal inhibition against SARS-CoV-2 M^pro [1] (IC50). On SARS-CoV-2 M^pro [2] (setting [7]), this compound gave a Ki of 0.21 ± 0.02 µM. The “kcat (turnover number)” value at SARS-CoV-2 M^pro [2] (setting [8]) came out at 0.010 s⁻¹. The Inhibition mechanism entry at SARS-CoV-2 M^pro [2] (setting [9]) is recorded as “competitive inhibition”. Further, the “Inhibition of HIV in cellular assays” value in series [4] was “inhibit”. The “Inhibition of HIV reverse transcriptase” value in series [5] is given as “inhibit”. Moreover, the “Inhibition of HBV in cellular assays” value in the series with hepatitis B virus (HBV) is listed as “inhibitor”. The LD50 in the series on mouse (IP) is listed as 340 mg/kg.

`C=CC1=C(C)c2cc3[nH]c(cc4nc(cc5[nH]c(cc1n2)c(C)c5CCC(=O)O)C(CCC(=O)O)=C4C)c(C)c3C=C` [Protoporphyrin IX]: the IC50 at SARS-CoV-2 M^pro [1] worked out at 23 ± 2.4 µM.

Take `CCOc1cccc(C(=O)c2ccc(O)c(O)c2O)c1` [(3-ethoxyphenyl)-(2,3,4-trihydroxyphenyl)methanone]: at SARS-CoV-2 M^pro [1], the IC50 is 10.6 ± 1.3 µM.

In the case of `CCOC(=O)c1cc(=O)oc2cc(O)c(O)cc12` [esculetin-4-carboxylic acid ethyl ester], in the series on SARS-CoV M^pro, the IC50 is 46 µM. The EC50 in the series with SARS-CoV is 112 µM. Also, in the series with Vero-cell, the “TC50 (median toxic concentration)” value is over 800 µM.

In turn, `COc1cc(C(=S)N2CCOCC2)ccc1O` [Vanitiolide (10)] displayed an IC50 on SARS-CoV-2 M^pro [1] of 4.6 ± 0.6 µM.

Consider `O=C(OCC1OC(OC(=O)c2cc(O)c(O)c(OC(=O)c3cc(O)c(O)c(O)c3)c2)C(OC(=O)c2cc(O)c(O)c(OC(=O)c3cc(O)c(O)c(O)c3)c2)C(OC(=O)c2cc(O)c(O)c(OC(=O)c3cc(O)c(O)c(O)c3)c2)C1OC(=O)c1cc(O)c(O)c(OC(=O)c2cc(O)c(O)c(O)c2)c1)c1cc(O)c(O)c(OC(=O)c2cc(O)c(O)c(O)c2)c1` (stereo not drawn) [Tannic acid (4), Tannic acid], for which the IC50 at SARS-CoV-2 M^pro [1] is 2.1 ± 0.2 µM; in the series on SARS-CoV M^pro, 3 µM. Further, the Ki at SARS-CoV-2 M^pro [2] (setting [7]) amounted to 1.4 ± 0.14 µM. On SARS-CoV-2 M^pro [2] (setting [8]), the “kcat (turnover number)” value was 0.010 s⁻¹. Further, the Inhibition mechanism entry at SARS-CoV-2 M^pro [2] (setting [9]) is “Competitive”; at SARS-CoV-2 M^pro [2] (most probable model by SSQ, ΔAIC, ΔBIC (Dynafit), listed as tannic acid (4)), “competitive inhibition”. The “Relative activity (initial rate / negative control)” value at SARS-CoV-2 M^pro [3] is 0.0 (SD = 0.014).
